From patent US8299089B2, “Multi-arm polymeric conjugates of 7-ethyl-10-hydroxycamptothecin for treatment of breast, colorectal, pancreatic, ovarian and lung cancers” (priority 2006, dated 2012)

How the values were obtained:
Colo 205 = experiment: In vitro cytotoxicity, MTS assay, Colo 205; type: cell-based; conditions: Table 2; Colo 205, 72 hours; Compound 9 in 7-ethyl-10-hydroxycamptothecin equivalents; average ± SD (n = 3)
Experimental: (§1) In Table 2, the cytotoxicity (μM of each compound that results in an IC50) provides an indication of the in vitro anti-tumor potency of each compound. This study was used to determine the effect of PEGylation of four-arm PEGylated 7-ethyl-10-hydroxycamptothecin conjugates. […] Cells were incubated with drugs for 72 hours at 37° C. Following incubation, MTS dye was added and formation of a colored product (formazan) was measured at 490 nm.

HT29 = experiment: In vitro cytotoxicity, MTS assay, HT29; type: cell-based; conditions: Table 2; HT29, 72 hours; Compound 9 in 7-ethyl-10-hydroxycamptothecin equivalents; average ± SD (n = 3)
Experimental: as §1

A549 = experiment: In vitro cytotoxicity, MTS assay, A549; type: cell-based; conditions: Table 2; A549, 72 hours; Compound 9 in 7-ethyl-10-hydroxycamptothecin equivalents; average ± SD (n = 3)
Experimental: as §1

PANC-1 = experiment: In vitro cytotoxicity, MTS assay, PANC-1; type: cell-based; conditions: Table 2; PANC-1, 72 hours; Compound 9 in 7-ethyl-10-hydroxycamptothecin equivalents; average ± SD (n = 3)
Experimental: as §1

MIA PaCa-2 = experiment: In vitro cytotoxicity, MTS assay, MIA PaCa-2; type: cell-based; conditions: Table 2; MIA PaCa-2, 72 hours; Compound 9 in 7-ethyl-10-hydroxycamptothecin equivalents; no SD = average of two replicates
Experimental: as §1

ASPC-1 = experiment: In vitro cytotoxicity, MTS assay, ASPC-1; type: cell-based; conditions: Table 2; ASPC-1, 72 hours; Compound 9 in 7-ethyl-10-hydroxycamptothecin equivalents; average ± SD (n = 3)
Experimental: as §1

BxPC-3 = experiment: In vitro cytotoxicity, MTS assay, BxPC-3; type: cell-based; conditions: Table 2; BxPC-3, 72 hours; Compound 9 in 7-ethyl-10-hydroxycamptothecin equivalents; average ± SD (n = 3)
Experimental: as §1

OVCAR-3 = experiment: In vitro cytotoxicity, MTS assay, OVCAR-3; type: cell-based; conditions: Table 2; OVCAR-3, 72 hours; Compound 9 in 7-ethyl-10-hydroxycamptothecin equivalents; average ± SD (n = 3)
Experimental: as §1

OV90 = experiment: In vitro cytotoxicity, MTS assay, OV90; type: cell-based; conditions: Table 2; OV90, 72 hours; Compound 9 in 7-ethyl-10-hydroxycamptothecin equivalents; average ± SD (n = 3)
Experimental: as §1

OVCAR-8 = experiment: In vitro cytotoxicity, MTS assay, OVCAR-8; type: cell-based; conditions: Table 2; OVCAR-8, 72 hours; Compound 9 in 7-ethyl-10-hydroxycamptothecin equivalents; average ± SD (n = 3)
Experimental: as §1

A2780 = experiment: In vitro cytotoxicity, MTS assay, A2780; type: cell-based; conditions: Table 2; A2780, 72 hours; Compound 9 in 7-ethyl-10-hydroxycamptothecin equivalents; average ± SD (n = 3)
Experimental: as §1

SK-0V-3 = experiment: In vitro cytotoxicity, MTS assay, SK-0V-3; type: cell-based; conditions: Table 2; SK-0V-3, 72 hours; Compound 9 in 7-ethyl-10-hydroxycamptothecin equivalents; average ± SD (n = 3)
Experimental: as §1

[1] = test system: human mammary carcinoma (MX-1); experiment: Single dose efficacy in MX-1 breast tumor xenograft mouse model; type: in vivo, nude mice; conditions: day 31; for TGI: 20 mg/kg
Experimental: Following at least one week of acclimation, tumors were established by implanting small tumor fragments from donor mice into a single subcutaneous site, on the left auxiliary flank region of nude mice. The tumor implantation site was observed twice weekly and measured once palpable. The tumor volume for each mouse was determined by measuring two dimensions with calipers and calculated using the formula: tumor volume=(length×width^2). […] Drugs were administered intravenously via the tail vein as a single dose of 20 mg/kg body weight of a mouse. […] Mouse weight and tumor sizes were measured at the beginning of study and on the 31st day after the single dose administration.
The overall growth of tumors was calculated as the mean tumor volume (TV). A percent treatment over control (T/C) was also calculated. The percentage of tumor regression indicates the in vivo activity of each compound.

[2] = test system: human mammary carcinoma (MX-1); experiment: Multiple dose efficacy in MX-1 breast tumor xenograft mouse model; type: in vivo, nude mice; conditions: i.v. 5 mg/kg/dose (q2d×6), day 31
Experimental: The mice were dosed 5 mg/kg/day […] (every 2 days [q×2d]×6). Mouse weight and tumor sizes were monitored up to the 31st day after the first dose administration and subsequent administrations.

[3] = test system: human mammary, MX-1 tumors; experiment: Efficacy in small and large MX-1 breast tumor xenografted mice; type: in vivo, nude mice
Experimental: The antitumor efficacy of 4armPEG-Gly-(7-ethyl-10-hydroxycamptothecin) was evaluated in nude mice bearing small (about 100 mm^3) or large (about 450 mm^3) established human mammary, MX-1 tumors. The antitumor therapeutic activities were determined in mice both with a single dose or multiple dose regimens.
Four of six mice were cured as of day 54. […] All animals were sacrificed by day 20 due to excessive tumor burden.

[4] = test system: MiaPaCa-2 pancreatic tumor cells; experiment: Efficacy in MiaPaCa-2 pancreatic tumor xenograft mice; type: in vivo
[5] = Stability in saline, aqueous medium and buffer; type: physicochemical; conditions: effect of pH, FIG. 13
Experimental: PEG-7-ethyl-10-hydroxycamptothecin conjugates show good stability in saline and other aqueous medium for up to 24 hours at room temperature.

[6] = Pharmacokinetics in tumor free Balb/C mice; type: in vivo
Excerpt: Pharmacokinetic analysis was done using non-compartmental analysis (WinNonlin).

Pharmacokinetics in rats = type: in vivo; conditions: rats, 3, 10 and 30 mg/kg; conjugate
[7] = test system: panel of cancer cell lines; experiment: In vitro cytotoxicity, panel of cancer cell lines (comparisons); type: cell-based
Experimental: as §1
PEG-(7-ethyl-10-hydroxycamptothecin) conjugates containing various amino acids are potent in vitro cytotoxicity against a panel of cancer cell lines as summarized in TABLE 3.

[8] = test system: HT-29 colorectal tumor cells; experiment: Efficacy in HT-29 colorectal tumor xenograft mice

**Q.** What does the source list for “^40k4arm-PEG-Gly(20)-(7-ethyl-10-hydroxycamptothecin) [Compound 9]”?
**A.** IC50 (Colo 205): 1000 ± 600 nM; IC50 (HT29): 500 ± 300 nM; IC50 (A549): 2700 ± 400 nM; IC50 (PANC-1): 670 ± 140 nM; IC50 (MIA PaCa-2): 90 nM; IC50 (ASPC-1): 1600 ± 1100 nM; IC50 (BxPC-3): 240 ± 40 nM; IC50 (OVCAR-3): 300 ± 200 nM; IC50 (OV90): 600 ± 700 nM; IC50 (OVCAR-8): 500 ± 100 nM; IC50 (A2780): 200 ± 200 nM; IC50 (SK-0V-3): 900 ± 10 nM; Mean TV ± SD ([1]; single dose i.v. 20 mg/kg (conjugate as 7-ethyl-10-hydroxycamptothecin equivalent)): 7 ± 9 mm^3; Chg in TV ± SD ([1]; single dose i.v. 20 mg/kg): −94 ± 10%; Cures ([1]; single dose i.v. 20 mg/kg): 100%; F/I ([1]; single dose i.v. 20 mg/kg): 7%; Median TV ([1]; single dose i.v. 20 mg/kg): 3 mm^3; Regressions ([1]; single dose i.v. 20 mg/kg): 100%; Survival ([1]; single dose i.v. 20 mg/kg): 100%; T/C ([1]; single dose i.v. 20 mg/kg): 0.3%; TGI ([1]; single dose i.v. 20 mg/kg): 99%; TGI ([1]; single dose i.v. 20 mg/kg, listed as 4armPEG-Gly-(7-ethyl-10-hydroxycamptothecin)): ~100%; Chg in TV ± SD [2]: −91 ± 10%; Cures [2]: 100%; F/I [2]: 14%; Mean TV ± SD [2]: 12 ± 18 mm^3; Median TV [2]: 6.6 mm^3; Regressions [2]: 100%; Survival [2]: 100%; T/C [2]: 0.8%; TGI [2]: 99%; effect on body weight ([3]; given at the MTD, for the duration of the treatment): did not significantly decrease the body weight; TGI ([3]; large tumors (about 450 mm^3), single MTD 30 mg/kg): 96%; mice cured ([3]; large tumors, multiple doses 10 mg/kg q2d×5, as of day 54): five of six; TGI ([3]; large tumors, multiple doses at MTD 10 mg/kg q2d×5): 96%; mice cured ([3]; large tumors, single MTD 30 mg/kg, as of day 54): Four of six; TGI ([3]; small tumors (about 100 mm^3), multiple doses 20 mg/kg q2d×5, as of day 31): 96%; TGI ([3]; small tumors (about 100 mm^3), single dose 20 mg/kg): 100%; TGI ([4]; multiple doses i.v. (10 mg/kg/dose for five days; CPT-11 also 40 mg/kg/dose)): 95%; TGI ([4]; single dose i.v. (30 mg/kg; CPT-11 also 80 mg/kg)): 71%; rate of 7-ethyl-10-hydroxycamptothecin release [5]: increases with increased pH; terminal elimination half-life ([6]; for 7-ethyl-10-hydroxycamptothecin): 18 to 26 h; terminal elimination half-life ([6]; for the conjugate): 18 to 22 h; elimination half life (Pharmacokinetics in rats): 12 to 18 h; in vitro inhibition compared with CPT-11 ([7]; all tested tumor cells): much higher in vitro inhibition; in vitro inhibition compared with native 7-ethyl-10-hydroxycamptothecin ([7]; tested tumor cells except for HT29): significantly higher in vitro inhibition; effect on body weight ([8]; during the treatment): did not significantly decrease the body of weight; therapeutic efficacy ([8]; i.v. 10 mg/kg/dose for five days, days 4-22): significant therapeutic efficacy compared to that of CPT-11; anti-tumor activity ([8]; single dose i.v. 30 mg/kg, days 4-22): significant anti-tumor activity
